Experimental findings from publication PMC11289893 (RSC Chemical Biology, 2024) are described below.

The series deals with HeLa cells. As to the kind of experiment: Cell proliferation. In kind it is cell-based. The settings on record: tested concentrations 0 to 20 μM.

As to `COC[C@H]1OC(=O)c2coc3c2[C@@]1(C)C1=C(C3=O)[C@@H]2CCC(=O)[C@@]2(C)C[C@H]1OC(C)=O` [Wortmannin], the “cytotoxicity in HeLa cells” value is “did not observe Wortmannin cytotoxicity”.
